# Patent publication US20240316055A1, “METHODS FOR TREATING LEIGH SYNDROME” (DBCC Research, LLC, priority 2023, published 2024)
# Assays:
# Format in all cases: cell-based
# [1] = system: ECHS1 Fibroblast cells; test: Propionate potency screen (cell viability, DAPI nuclei count); details: for concentration-dependent curves: propionate potency screen, FIG. 4; for Propionate assay hits: 10 mM propionate medium, 96 hours, 3-fold serial dilution starting at 10 uM, Z-score >2
# Description: The suspension was centrifuged at 200x g for 5 min. The suspension was discarded and the pellet was resuspended in the 10 mM propionate medium (DMEM+10% FBS+10 mM sodium propionate) and seeded at 750 cells/well (50 μL) into the compound wells (1 μM and 10 μM). For the positive control experiment, the cells were suspended in 10 mM propionate medium +5.5 mM glucose +0.01% DMSO and seeded at 750 cells/well (50 μL) into the blank wells. For the negative control experiment, the cells were suspended in the 10 mM propionate medium +0.01% DMSO and seeded at 750 cells/well (50 μL) into the blank wells. […] The plates were then washed 3x with 50 uL/well of PBS. The cells were stained with 25 μL/well of a solution DAPI and left at room temperature for 1 hr. The plates were then washed 3x with 50 uL/well of PBS prior to imaging. Agilent BioTek EL406 Microplate Washer Dispenser was used for the cell fixation and staining protocol. The plates were imaged using GE InCell2200 Cell Analyzer using PerkinElmer Columbus software quantification protocol. The data was analyzed using Genedata, Vortex, and Abase software. A Z-score value of >2 was used for both the Prestwick/Selleck and SPECS library (based on the negative control population) to determine hit selection.
# ECHS1 Fibroblast cells were harvested at 70-80% confluent with trypsin and suspended in DMEM+10% FBS. The suspension was centrifuged at 200x g for 5 min. The suspension was discarded and the pellet was resuspended in the either the 5.5 mM galactose medium (DMEM+10% FBS+5.5 mM of galactose) or the 10 mM propionate medium (DMEM+10% FBS+10 mM sodium propionate). […] For the positive control experiment, the cells were suspended in either the 5.5 mM galactose medium or 10 mM propionate medium+5.5 mM glucose+0.01% DMSO and seeded at 750 cells/well (50 μL) into the blank wells. For the negative control experiment, the cells were suspended in the 5.5 mM galactose or 10 mM propionate medium +0.01% DMSO and seeded at 750 cells/well (50 μL) into the blank wells. […] The plates were then washed 3x with 50 μL/well of PBS. The cells were stained with 25 μL/well of a solution of DAPI and left at room temperature for 1 hr. The plates were then washed 3x with 50 μL/well of PBS prior to imaging. Agilent BioTek EL406 Microplate Washer Dispenser was used for the cell fixation and staining protocol. The plates were imaged using GE InCell2200 Cell Analyzer using PerkinElmer Columbus software quantification protocol. The data was analyzed using Genedata, Vortex, and Abase software. A Z-score value of >2 was used for both the Prestwick/Selleck and SPECS library (based on the negative control population) to determine hit selection.
# [2] = system: ECHS1 patient-derived fibroblasts; test: Mitochondrial respiration assay (Seahorse); details: 48 hours; for respiration: glucose or galactose conditions, 1, 5 or 10 μM
# From the text: To assess the mechanism of action of hit compounds from the screens of previous Examples, which were based on rescue of viability after metabolic challenge, Seahorse assay was used to measure mitochondrial function in response to treatment at multiple concentrations. The Seahorse assay measures the following parameters: oxygen consumption; basal respiration rate; ATP-linked respiration; maximal respiration; reserve capacity; and ATP production rate. At baseline (no treatment), the ECHS1 patient-derived fibroblasts had lower respiration rates than the control fibroblasts in glucose culturing conditions (20% reduction) and in galactose culturing conditions (30% reduction).
# ECHS1 patient-derived fibroblasts and age-matched and sex-matched control fibroblasts were initially grown in standard media (DMEM+2 mM glutamine+1 mM pyruvate) containing 10 mM glucose as the energy source. Cells were seeded into specialized 96-well plates at a density of 10,000 cells per well. One day after plating, cells were treated with the test compounds at the concentrations of 0, 1, 5, or 10 μM. Half of the samples were cultured in 10 mM glucose media in addition to the test compounds. The remaining half of the sample were cultured in 10 mM galactose media, which is a metabolic challenge, in addition to the test compound. Test compounds were incubated with cells for 48 hours. According to the standard Seahorse protocol, the following stressors were added to cells in sequential order: 2 μM oligomycin; 5 μM carbonyl cyanide-4-(trifluoromethoxy)phenylhydrazone (FCCP); 9 μM FCCP; 2 μM rotenone and 2 μM antimycin A. Data were normalized to cell number per well using a Hoechst stain for cell nuclei. Two rounds of experiments were conducted. The results were consistent between the two rounds.
# [3] = system: ECHS1 Fibroblast cells; test: Galactose potency screen (cell viability, DAPI nuclei count); details: for Galactose assay hits: 5.5 mM galactose medium, 96 hours, 3-fold serial dilution starting at 10 uM, Z-score >2
# Description: Galactose Screen: Compound library plates were obtained from Prestwick/Selleck and SPECS (7,591 compounds total, 27 compounds/plate/concentration at 1 μM and 10 μM, 384-well plates). ECHS1 Fibroblast cells were harvested at 95% confluent with trypsin and suspended in Dulbecco's Modified Eagle Medium (DMEM)+10% Fetal Bovine Serum (FBS). The suspension was centrifuged at 200x g for 5 min. The suspension was discarded and the pellet was resuspended in the 5.5 mM galactose medium (DMEM+10% FBS+5.5 mM galactose) and seeded at 750 cells/well (50 μL) into the compound wells (1 μM and 10 μM). For the positive control experiment, the cells were suspended in 5.5 mM galactose medium+5.5 mM glucose+0.01% DMSO and seeded at 750 cells/well (50 μL) into the blank wells. For the negative control experiment, the cells were suspended in the 5.5 mM galactose medium+0.01% DMSO and seeded at 750 cells/well (50 μL) into the blank wells. The seeded plates were incubated at 37° C. for 96 hours, then 15 μL/well of 16% paraformaldehyde solution was added to the plates and allowed to sit for 15 min to fix the cells. The plates were then washed 3x with 50 μL/well of phosphate-buffered saline (PBS). The cells were stained with […] of a solution of 4,6-diamidino-2-phenylindole dilactate (DAPI, Invitrogen) and left at room temperature for 1 hr. The plates were then washed 3x with 50 μL/well of PBS prior to imaging. Agilent BioTek EL406 Microplate Washer Dispenser was used for the cell fixation and staining protocol. The plates were imaged using GE InCell2200 Cell Analyzer using PerkinElmer Columbus software quantification protocol. The data was analyzed using Genedata, Vortex, and Abase software. A Z-score value of >2 was used for the Prestwick/Selleck compound library and >3 for the SPECS library (based on the negative control population) to determine hit selection.
# ECHS1 Fibroblast cells were harvested at 70-80% confluent with trypsin and suspended in DMEM+10% FBS. The suspension was centrifuged at 200x g for 5 min. The suspension was discarded and the pellet was resuspended in the either the 5.5 mM galactose medium (DMEM+10% FBS+5.5 mM of galactose) or the 10 mM propionate medium (DMEM+10% FBS+10 mM sodium propionate). The cells were seeded at 750 cells/well (50 μL) into a 384-well plate containing the test compounds (3-fold serial dilution across 10 plates, starting at 10 uM). For the positive control experiment, the cells were suspended in either the 5.5 mM galactose medium or 10 mM propionate medium+5.5 mM glucose+0.01% DMSO and seeded at 750 cells/well (50 μL) into the blank wells. For the negative control experiment, the cells were suspended in the 5.5 mM galactose or 10 mM propionate medium +0.01% DMSO and seeded at 750 cells/well (50 μL) into the blank wells. The seeded plates were incubated at 37° C. for 96 hours, then 15 μL/well of 16% paraformaldehyde solution was added to the plates and allowed to sit for 15 min to fix the cells. The plates were then washed 3x with 50 μL/well of PBS. The cells were stained with 25 μL/well of a solution of DAPI and left at room temperature for 1 hr. The plates were then washed 3x with 50 μL/well of PBS prior to imaging. Agilent BioTek EL406 Microplate Washer Dispenser was used for the cell fixation and staining protocol. The plates were imaged using GE InCell2200 Cell Analyzer using PerkinElmer Columbus software quantification protocol. The data was analyzed using Genedata, Vortex, and Abase software. A Z-score value of >2 was used for both the Prestwick/Selleck and SPECS library (based on the negative control population) to determine hit selection.
SMILES,concentration-dependent curves [1],Galactose assay hits [3],Propionate assay hits [1],also measured
"CCCCOc1c(C(=O)c2c(F)cc(C)cc2F)cnc2n[nH]cc12 [BMS-265246, (4-butoxy-2H-pyrazolo[3,4-b]pyridin-5-yl)-(2,6-difluoro-4-methylphenyl)methanone]",non-linear response,–,–,–
"COc1ccc(-n2c(C)c([N+](=O)[O-])c3ccc(O)cc32)cc1 [ID-8, 1-(4-methoxyphenyl)-2-methyl-3-nitroindol-6-ol]",non-linear response,–,–,–
"Cc1cccc(-c2n[nH]cc2-c2ccc3ncccc3n2)n1 [RepSox, 2-[5-(6-methylpyridin-2-yl)-1H-pyrazol-4-yl]-1,5-naphthyridine]",–,hits,hits,respiration [2]: did not result in major changes
"COc1nccc(-c2c(-c3ccc(F)cc3)ncn2[C@H]2CC[C@H](O)CC2)n1 [SB-239063, 4-[4-(4-fluorophenyl)-5-(2-methoxypyrimidin-4-yl)imidazol-1-yl]cyclohexan-1-ol]",–,–,–,"nuclei count ([3]; galactose assay, FIG. 1): concentration-dependent increase; concentration-dependent curves ([3]; galactose potency screen, FIG. 2): non-linear response"
"CNC(C)C(=O)NC1CCCCC2CCC(C(=O)NC(c3ccccc3)c3cn(CCCCc4ccc(CCCCn5cc(C(NC(=O)C6CCC7CCCCC(NC(=O)C(C)NC)C(=O)N76)c6ccccc6)nn5)cc4)nn3)N2C1=O [SM-164, (3S,6S, 10aS)-N-[(S)-[1-[4-[4-[4-[4-[(S)-[[(3S,6S,10aS)-6-[[(2S)-2-(methylamino)propanoyl]amino]-5-oxo-2,3,6,7,8,9,10,10a-octahydro-1H-pyrrolo[1,2-a]azocine-3-carbonyl]amino]-phenylmethyl]triazol-1-yl]butyl]phenyl]butyl]triazol-4-yl]-phenylmethyl]-6-[(2S)-2-(methylamino)propanoyl]amino]-5-oxo-2,3,6,7,8,9,10,10a-octahydro-1H-pyrrolo[1,2-a]azocine-3-carboxamide]",non-linear response,–,–,–
"Fc1ccc(-c2nc(-c3c(F)cccc3F)[nH]c2-c2ccncc2)cc1 [TA-01, 4-[2-(2,6-difluorophenyl)-4-(4-fluorophenyl)-1H-imidazol-5-yl]pyridine]",–,hits,hits,–
"CCC(=O)Nc1cccc(Oc2nc(Nc3ccc(N4CCN(C)CC4)cc3OC)ncc2Cl)c1 [WZ4003, N-[3-[5-chloro-2-[2-methoxy-4-(4-methylpiperazin-1-yl)anilino]pyrimidin-4-yl]oxyphenyl]propanamide]",non-linear response,–,–,"nuclei count ([1]; propionate assay, FIG. 3): concentration-dependent increase"
"CCOC(=O)C1=C(C)NC(C)=C(C(=O)OC)C1c1cccc(Cl)c1Cl (stereo not shown) [felodipine, 5-O-ethyl 3-O-methyl 4-(2,3-dichlorophenyl)-2,6-dimethyl-1,4-dihydropyridine-3,5-dicarboxylate]",–,–,–,ATP production from glycolysis [2]: increased; basal and maximal respiration [2]: decreased; respiration [2]: did not result in major changes
Cc1ccc(-n2nc(C(C)(C)C)cc2NC(=O)NCc2cc(F)ccc2Oc2ccc3c(cnn3CCO)c2)cc1 [pexmetinib],non-linear response,hits,hits,"increase in cell number per well ([2]; 1 μM, both galactose and glucose cultured plates): 14%; total ATP production ([2]; most pronounced in the 1-5 μM range): some recovery; maximal respiration ([2]; galactose-treated cells): less pronounced; maximal respiration ([2]; glucose-treated cells): increased to similar levels to the control cells"
